Values quoted from earlier work as cited in patent US7914804B2, “Slow release pharmaceutical preparation and method of administering same” (Palmaya Pty Ltd, priority 2001, dated 2011).

Structure (SMILES) | t1/2 (in the body) | effectiveness relative to Naloxone (thought to be) | lasting in the body relative to Naloxone (thought to be) [times]
C=CCN1CC[C@]23c4c5ccc(O)c4O[C@H]2C(=O)CC[C@@]3(O)[C@H]1C5 [Naloxone] | ½ |  | 
O=C1CC[C@@]2(O)[C@H]3Cc4ccc(O)c5c4[C@@]2(CCN3CC2CC2)[C@H]1O5 [Naltrexone] |  | twice as effective | 8
